The target in one experiment is T1, Cdc7-ASK complex (Homo sapiens, UniProt O00311).
T1 construct: made in house; host or cells: E. coli C600 lon-
Kind of experiment: ELISA system for measuring inhibition of Cdc7-ASK complex phosphorylation activity (GST-Mcm2 (1-130 a.a.) substrate, anti-Mcm2-phospho-S17 antibody). Type of experiment: biochemical. As to conditions: for concentration-dependent inhibitory effect for Cdc7-ASK complex: ELISA, inhibitor dilution series, FIG. 8. (An ELISA detects its analyte on a solid surface through an enzyme-linked reagent.)

Another experiment has as its target T2, HA-huCdc7 (wild type) (human, UniProt O00311 14-574).
T2 construct: also called HA-Cdc7
Kind of experiment: co-purification on glutathione Sepharose 4B from E. coli co-expression, SDS-PAGE with silver staining.

T1 sequence (O00311 14-574 limits assumed, one chain of several): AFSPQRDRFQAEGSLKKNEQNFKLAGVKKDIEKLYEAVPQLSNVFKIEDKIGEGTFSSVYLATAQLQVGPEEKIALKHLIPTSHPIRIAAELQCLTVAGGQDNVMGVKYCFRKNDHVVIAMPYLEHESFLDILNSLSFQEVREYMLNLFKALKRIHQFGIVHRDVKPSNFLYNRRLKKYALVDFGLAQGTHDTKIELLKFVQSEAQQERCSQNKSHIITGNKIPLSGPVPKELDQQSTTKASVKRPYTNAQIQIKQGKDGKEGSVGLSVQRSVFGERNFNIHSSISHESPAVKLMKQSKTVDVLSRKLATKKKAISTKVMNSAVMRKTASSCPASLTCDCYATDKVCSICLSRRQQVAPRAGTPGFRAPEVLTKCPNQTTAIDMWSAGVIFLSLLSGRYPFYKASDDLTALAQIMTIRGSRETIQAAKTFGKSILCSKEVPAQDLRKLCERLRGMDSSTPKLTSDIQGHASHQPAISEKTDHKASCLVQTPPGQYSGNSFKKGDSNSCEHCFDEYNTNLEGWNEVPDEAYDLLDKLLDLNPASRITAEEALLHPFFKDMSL
T2 sequence (O00311 other isoform, or with tags, fused parts or gaps): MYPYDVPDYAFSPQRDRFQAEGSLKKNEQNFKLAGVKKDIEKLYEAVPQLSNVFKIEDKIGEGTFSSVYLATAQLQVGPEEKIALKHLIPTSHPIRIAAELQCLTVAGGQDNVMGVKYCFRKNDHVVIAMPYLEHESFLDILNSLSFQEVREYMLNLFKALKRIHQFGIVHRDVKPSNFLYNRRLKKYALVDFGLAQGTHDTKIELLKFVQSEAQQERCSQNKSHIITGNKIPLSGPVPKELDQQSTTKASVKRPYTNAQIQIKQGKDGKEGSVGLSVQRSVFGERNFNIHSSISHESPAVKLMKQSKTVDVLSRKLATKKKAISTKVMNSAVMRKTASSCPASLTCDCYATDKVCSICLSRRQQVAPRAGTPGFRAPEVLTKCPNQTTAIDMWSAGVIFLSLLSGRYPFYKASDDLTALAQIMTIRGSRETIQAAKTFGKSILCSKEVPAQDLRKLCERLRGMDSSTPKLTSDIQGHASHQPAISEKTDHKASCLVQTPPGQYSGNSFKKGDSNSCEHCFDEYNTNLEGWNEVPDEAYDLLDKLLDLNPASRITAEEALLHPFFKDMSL
Method for Cdc7-ASK complex: GST-Mcm2 (1-130 a.a.) and GST-Mcm2 (1-80 a.a.) were diluted to 5 μg/ml using 0.1 M carbonate buffer, pipetted at 50 μl/well in to each well of a microtiter plate for ELISA, and then sensitized overnight at 4° C. The sensitizing solution was removed, a blocking solution (1% BSA, 5% sucrose and 0.1% NaN3/PBS) was pipetted in to each well at 200 μl/well, and the plate was allowed to stand for about one hour at room temperature. The blocking solution was then completely removed. The plates were then air-dried in a draft chamber, and stored at 4° C. until use. GST-Mcm2 (1-130 a.a.) and GST-Mcm2 (1-80 a.a.) were immobilized on the inner walls of the microtiter plates by this procedure.
A recombinant Cdc7-ASK complex dilution series was prepared by diluting from one-fold (×1) to 64-fold in two-fold increments using a phosphorylation buffer. 50 μl aliquots of this solution were added to the wells of the immobilized plates (a protein phosphorylation reaction). After incubating at 30° C. for a fixed period of time, the phosphorylation reaction solution was discarded and each well was amply washed four or more times with PBS. […] The primary antibody reaction solution was then discarded and each well was amply washed four or more times with PBS. Anti-rabbit immunoglobulin antibody (secondary antibody, MBL) labeled with horseradish peroxidase (HRP) was then diluted 1000-fold with PBS and added to each well in 50 μl aliquots, then allowed to react for 30 to 60 minutes at room temperature (secondary antibody reaction). The secondary antibody reaction solution was then discarded and each well was washed four or more times with PBS. A coloring substrate solution was then added to each well in 50 μl aliquots, and color was developed for five to 20 minutes (coloring reaction). The coloring reaction was stopped by adding 50 μl aliquots of reaction stopping solution to each well, and the optical absorbance at 450 nm was measured using a microplate reader. […]

With `CC[C@H](CO)Nc1nc(NCc2ccccc2)c2ncn(C(C)C)c2n1` [Roscovitine], the “concentration-dependent inhibitory effect for Cdc7-ASK complex” value on Cdc7-ASK complex is “not observed”.

With `COC(=O)[C@@]1(O)C[C@H]2O[C@]1(C)n1c3ccccc3c3c4c(c5c6ccccc6n2c5c31)C(=O)NC4` [K-252a], on Cdc7-ASK complex, it took 2 µM to reach half-maximal inhibition (IC50) and the “concentration-dependent inhibitory effect for Cdc7-ASK complex” value is “concentration-dependent”.

B1: GST-TAT-ASK(minimum) (other)
chain: YGRKKRRQRRRDIRYYIEQKKKELYLLKKSSTSVRDGGKRVGSGAQKTRTGRLKKPFVKVEDMSQLYRPFYLQLTNMPFINYSIQKPCSPFDVDKPSSMQKQTQVKLRIQTDGDKYGGTSIQLQLKEKKKKGYCECCLQKYEDLETHLLSEQHRNFAQSNQYQVVDDIVSKLVFDFVEYEKDTPKKK
notes: also called GST-ASK; partial ASK
Turning to B1, the binding result in the experiment with HA-huCdc7 (wild type) is given as “binds”.

These data come from patent US20050250166A1, “Cdc7-ask kinase complex, substrates of the kinase complex, antibody specific to the substrate, and method of screening compound capable of inhibiting cdc7-ask kinase using the same” (Medical and Biological Laboratories Co. Ltd., priority 2002, published 2005).
